In publication PMC3705412, “PTP1B Inhibitory and Anti-Inflammatory Effects of Secondary Metabolites Isolated from the Marine-Derived Fungus Penicillium sp. JF-55” (Marine Drugs, 2013):

Columns and labels:
HO-1 = assay: Effect of the HO-1 inhibitor SnPP on the inhibition of pro-inflammatory mediators in LPS-stimulated macrophages; type: cell-based, murine (C57BL/6 mice); settings: 40 μM pre-treatment 12 h, SnPP 50 μM, LPS 1 μg/mL 18 h
Method: Figure 8 The effects of SnPP on the inhibition of nitrite production (A), PGE2 production (B), NF-κB DNA-binding activity (C), TNF-α production (D), and IL-1β production (E) by penstyrylpyrone (1) pre-treatment of LPS-stimulated murine peritoneal macrophages. Murine peritoneal macrophages were pre-treated for 12 h with penstyrylpyrone (1) (40μM), in the presence or absence of SnPP (50 μM) and stimulated for 18 h with LPS (1μg/mL). The nitrite (A), PGE2 (B), TNF-α (D), and IL-1β (E) concentrations and nuclear NF-κB DNA-binding activity (C) were investigated as described in Materials and Methods. […]
The production of nitrite, a stable end product of NO oxidation, was used as a measure of iNOS activity. The nitrite present in the conditioned medium was determined using a method based on the Griess reaction.
The level of PGE2, TNF-α or IL-1β present in each sample was determined using a commercially available kit from R & D Systems. […] A substrate solution was added, and the intensity of the color produced, which was measured at 450 nm (the correction wavelength was set at 540 nm or 570 nm), was proportional to the amount of PGE2, TNF-α or IL-1β present.
The DNA-binding activity of NF-κB in the nuclear extracts was measured using the TransAM kit (Active Motif, Carlsbad, CA, USA) according to the manufacturer’s instructions.

IκB-α = assay: Western blotting of IκB-α phosphorylation and degradation in LPS-stimulated macrophages; type: cell-based, murine (C57BL/6 mice); settings: pre-treatment 12 h, 5 to 40 μM, LPS 1 μg/mL 1 h
Method: Figure 5 The effects of penstyrylpyrone (1) on the protein expression level of IκB-α phosphorylation, degradation of IκB-α (A), NF-κB translocation (B), and NF-κB DNA binding activity (C) in murine peritoneal macrophages. Murine peritoneal macrophages were pre-treated for 12 h at the indicated concentrations of penstyrylpyrone (1), and stimulated for 1 h with LPS (1 μg/mL). Western blotting analysis of IκB-α and p-IκB-α in the cytoplasm and NF-κB in the nucleus (A, B) were performed. A commercially available NF-κB ELISA (Active Motif) was used to test the nuclear extracts and to determine the degree of NF-κB binding (C). […]
Murine peritoneal macrophages were homogenized (1:20, w:v) in PER-Mammalian Protein Extraction buffer (Pierce Biotechnology, Rockford, IL, USA) containing freshly added protease inhibitor cocktail I (EMD Biosciences, San Diego, CA, USA) and 1 mM phenylmethylsulfonyl fluoride (PMSF). […] The protein concentration was determined using the bicinchoninic acid (BCA) protein assay kit.
Western blotting analysis was performed by lysing the cells in 20 mM Tris-HCl buffer (pH 7.4) containing a protease inhibitor mixture (0.1 mM PMSF, 5 mg/mL aprotinin, 5 mg/mL pepstatin A, and 1 mg/mL chymostatin). The protein concentration was determined using a Lowry protein assay kit (P5626; Sigma Chemical Co., St. Louis, MO, USA). […]

Suppressive effects on LPS-stimulated NO, PGE2, TNF-α, IL-1β production and NF-κB DNA-binding activity in presence of SnPP (HO-1): partially reversed by SnPP
Compound: COc1cc(/C=C/c2ccccc2)oc(=O)c1C [Penstyrylpyrone (1), penstyrylpyrone]
LPS-induced phosphorylation and degradation of IκB-α (IκB-α): markedly inhibited
